Some test systems named below: Klebsiella pneumoniae M6; Vibrio cholerae; Bacillus cereus; Escherichia coli K-12.
Common to all, as to assay: ≥ marks a high value that may be exact or a test limit, other limits are often not marked, values filed in µg/mL are converted to µM
Experiment [1] has as its system Acinetobacter baumannii AYE.
For experiment [2], the system named is Pseudomonas aeruginosa PAO1.
In experiment [3] the test system is Acinetobacter baumannii ATCC 17978.
Experiment [4] concerns Enterococcus faecalis NCTC 12201.
The test system of experiment [5] is Staphylococcus aureus NCTC 13277.
Experiment [6] has as its system Staphylococcus aureus NCTC 6571.
In experiment [7] the test system is Enterococcus faecalis NCTC 775.
Experiment [8] has as its system Staphylococcus aureus NCTC 13616.
For experiment [9], the system named is Pseudomonas aeruginosa NCTC 13437.
The subject of experiment [10] is Streptococcus mutans GS-5.
The subject of experiment [11] is Streptococcus mutans UA159.
Experiment [12] concerns Streptococcus sanguinis ATCC 49295.
The subject of experiment [13] is Streptococcus gordonii ATCC 10558.
Experiment [14] relates to Staphylococcus aureus ATCC 43300.
The subject of experiment [15] is Bacillus subtilis DSM 402.
The subject of experiment [16] is Staphylococcus aureus DSM 20231.
In experiment [17] the test system is Escherichia coli DSM 30083.
For experiment [18], the system named is Staphylococcus aureus ATCC 6538P.
In experiment [19] the test system is Staphylococcus aureus SR1550.
In experiment [20] the test system is Escherichia coli K-12 594.
The subject of experiment [21] is Klebsiella pneumoniae CGMCC 1.1736.
Experiment [22] deals with Staphylococcus epidermidis CGMCC 1.4260.
Experiment [23] has as its system Staphylococcus aureus CGMCC 1.8721.
Experiment [24] has as its system Bacillus subtilis CGMCC 1.3376.
The subject of experiment [25] is Escherichia coli CGMCC 1.8732.
The subject of experiment [26] is Pseudomonas aeruginosa CGMCC 1.2421.
Experiment [27] deals with Xanthomonas axonopodis ITCC BD00029.
Experiment [28] has as its system Fusarium solani MTCC 10158.
The test system of experiment [29] is Candida albicans MTCC 227.
The test system of experiment [30] is Salmonella enterica subsp. enterica serovar Typhi.
The test system of experiment [31] is Xanthomonas oryzae ITCC BB00026.
Experiment [32] concerns Escherichia coli DH5alpha.
For experiment [33], the system named is Pseudomonas aeruginosa ATCC 27853.
The subject of experiment [34] is Micrococcus luteus NCIMB 13267.
Experiment [35] concerns Bacillus subtilis ATCC 6633.
Experiment [36] concerns Staphylococcus aureus ATCC 6538.

In brackets after ≈: the same amount, converted by molar mass. Several values for one entry are separate records, joined by “and”; a condition that tells them apart may be missing. Equal entries are not always repeated.

Turning to `CC[C@H](C)[C@H](NC(=O)[C@@H]1CCCN1C(=O)[C@H](CC(C)C)NC(=O)[C@@H](N)Cc1ccccc1)C(=O)N[C@H](C(=O)NCC(=O)N[C@@H](CC(C)C)C(=O)N[C@@H](CC(C)C)C(=O)N[C@@H](CCCCN)C(=O)N[C@@H](CO)C(=O)N[C@@H](CC(C)C)C(=O)N[C@@H](CC(C)C)C(=O)N[C@@H](CCCCN)C(N)=O)C(C)C` [FLPIVGLLKSLLK], the MIC in [1] is 5.55 µM (≈ 7.99 µg/mL); in experiment [2], 88.8 µM (≈ 128 µg/mL); in experiment [3] it was 5.55 µM and 11.1 µM; in experiment [4] it was no less than 88.8 µM; in experiment [5], 11.1 µM (≈ 16 µg/mL); in [6], 2.78 µM and 5.55 µM. The MIC in experiment [7] is 22.2 µM and ≥ 44.4 µM; in experiment [8], 11.1 µM (≈ 16 µg/mL); in [9] it was no less than 88.8 µM; with Klebsiella pneumoniae M6 it was 22.2 µM and ≥ 44.4 µM.

As for `CC(C)C[C@H](NC(=O)[C@H](CCCN=C(N)N)NC(=O)[C@H](Cc1ccccc1)NC(=O)[C@H](Cc1ccccc1)NC(=O)[C@@H](NC(=O)[C@H](CO)NC(=O)[C@@H](N)CC(C)C)[C@@H](C)O)C(=O)N[C@@H](Cc1ccccc1)C(=O)N[C@@H](CC(N)=O)C(=O)NCC(=O)N[C@@H](CCCN=C(N)N)C(=O)N[C@@H](CCCN=C(N)N)C(=O)N[C@@H](CCCN=C(N)N)C(=O)N[C@@H](CCCN=C(N)N)C(=O)N[C@@H](CO)C(=O)N[C@H](C(=O)N[C@@H](CCC(N)=O)C(=O)N[C@@H](Cc1c[nH]c2ccccc12)C(=O)N[C@@H](CS)C(=O)N[C@@H](C)C(=O)O)C(C)C` [LSTFFRLFNGRRRRSVQWCA], the MIC in experiment [10] was 5.33 µM (≈ 13.3 µg/mL); in experiment [11], 4.27 µM (≈ 10.7 µg/mL); in [12], no less than 39.8 µM; in experiment [13], 19.9 µM (≈ 49.8 µg/mL).

With `NCCCC[C@H](N)C(=O)N[C@@H](CCCN=C(N)N)C(=O)N[C@@H](Cc1c[nH]c2ccccc12)C(=O)N[C@@H](CCCN=C(N)N)C(=O)N[C@@H](Cc1c[nH]c2ccccc12)C(=O)N[C@@H](CCCN=C(N)N)C(=O)N[C@@H](Cc1c[nH]c2ccccc12)C(=O)O` [KRWRWRW], the MIC in [14] was 12.7 µM (≈ 14.9 µg/mL); in [15], 2 µM (≈ 2.35 µg/mL); in experiment [16] it was no less than 37 µM; in experiment [17], 18 µM (≈ 21.1 µg/mL).

Take `CC(C)C[C@H](NC(=O)[C@H](CC(C)C)NC(=O)[C@H](CC(C)C)NC(=O)[C@H](CC(C)C)NC(=O)[C@H](CC(C)C)NC(=O)[C@H](CCCCN)NC(=O)[C@H](CC(C)C)NC(=O)[C@@H](N)CCCCN)C(N)=O` [KLKLLLLL]: the figures for the MIC in experiment [18], in experiment [19] and in experiment [20] were 8.39 µM (≈ 7.99 µg/mL), no less than 36.7 µM and 21 µM (≈ 20 µg/mL), respectively.

Regarding `CC[C@H](C)[C@H](NC(=O)[C@H](CO)NC(=O)CNC(=O)[C@@H](NC(=O)[C@@H](N)CCCN=C(N)N)[C@@H](C)CC)C(=O)N[C@@H](CC(C)C)C(=O)NCC(=O)N[C@@H](CCCN=C(N)N)C(=O)N[C@@H](CC(C)C)C(=O)N[C@@H](C)C(=O)N[C@@H](CCCCN)C(=O)NCC(=O)N[C@@H](CC(C)C)C(=O)N1CCC[C@H]1C(=O)N[C@H](C(=O)N[C@@H](CC(C)C)C(=O)N[C@H](C(=O)N[C@@H](CO)C(=O)N[C@@H](Cc1c[nH]c2ccccc12)C(=O)N[C@H](C(=O)N[C@@H](CCCCN)C(=O)N[C@@H](CC(N)=O)C(=O)N[C@@H](CCCN=C(N)N)C(N)=O)[C@@H](C)CC)[C@@H](C)CC)[C@@H](C)O` [RIGSILGRLAKGLPTLISWIKNR], the MIC in experiment [21] was found to be 6.25 µM (≈ 16 µg/mL); in experiment [22], 3.13 µM (≈ 8.02 µg/mL); in experiment [23] it was 12.5 µM (≈ 32 µg/mL); in experiment [24] it was 6.25 µM (≈ 16 µg/mL); in experiment [25], 6.25 µM (≈ 16 µg/mL); in [26], 6.25 µM (≈ 16 µg/mL).

Consider `NCCCC[C@H](NC(=O)[C@H](CCCCN)NC(=O)[C@H](CO)NC(=O)[C@H](CO)NC(=O)[C@H](CCCCN)NC(=O)[C@H](Cc1c[nH]c2ccccc12)NC(=O)[C@H](CCCN=C(N)N)NC(=O)[C@H](Cc1c[nH]c2ccccc12)NC(=O)[C@H](CCCN=C(N)N)NC(=O)[C@@H](N)CO)C(=O)O` [SRWRWKSSKK], for which the MIC against Vibrio cholerae was 30 µM (≈ 40.5 µg/mL); in experiment [27], 10 µM (≈ 13.5 µg/mL); in experiment [28], 20 µM (≈ 27 µg/mL); in experiment [29], no less than 40 µM; in experiment [30] it was 20 µM (≈ 27 µg/mL); in experiment [31], 10 µM (≈ 13.5 µg/mL). Further, the values for the MIC (in experiment [14]; against Bacillus cereus; in experiment [32]) were 20 µM (≈ 27 µg/mL), 30 µM (≈ 40.5 µg/mL) and 30 µM (≈ 40.5 µg/mL), respectively.

For `CC[C@H](C)[C@H](NC(=O)[C@H](CCC(=O)O)NC(=O)[C@H](CCC(N)=O)NC(=O)[C@H](CCC(=O)O)NC(=O)[C@H](CC(C)C)NC(=O)[C@H](C)NC(=O)[C@H](C)NC(=O)[C@@H](NC(=O)[C@H](CCC(=O)O)NC(=O)[C@H](CCC(N)=O)NC(=O)[C@H](CCC(=O)O)NC(=O)[C@H](CC(C)C)NC(=O)[C@H](C)NC(=O)[C@H](C)NC(=O)[C@@H](NC(=O)[C@@H](N)CCC(N)=O)[C@@H](C)CC)[C@@H](C)CC)C(=O)N[C@@H](C)C(=O)N[C@@H](C)C(=O)N[C@@H](CC(C)C)C(=O)N[C@@H](CCC(N)=O)C(=O)O` [QIAALEQEIAALEQEIAALQ], the MIC in experiment [33] is 250 µM (≈ 538 µg/mL); in [34] it was no less than 250 µM; in [35], no less than 250 µM; against Escherichia coli K-12, no less than 250 µM; in experiment [36], 250 µM (≈ 538 µg/mL).

Values taken from DBAASP.
